ChEMBL document CHEMBL1201862, “PubChem BioAssay data set” (2004)
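Tested at 5 concentrations; 48 h exposure; 96-well plates; endpoints linearly interpolated, else capped at highest concentration. GI50: concentration for 50% inhibition of growth.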 Active and inactive are the calls of the source. Cut-off read from the data, not from the text of the source: active = GI50 up to about 1.1 µM and inactive = higher.

Tests used:
Assay in all cases: NCI-60 cell line screen, 48 h
LXFL 529 = system: LXFL 529
UO-31 = system: UO-31
SR = system: SR
HT-29 = system: HT-29
OVCAR-5 = system: OVCAR-5
SF-268 = system: SF-268
SK-OV-3 = system: SK-OV-3
RPMI-8226 = system: RPMI-8226
NCI-H522 = system: NCI-H522
KM12 = system: KM12
MOLT-4 = system: MOLT-4
OVCAR-4 = system: OVCAR-4
SNB-19 = system: SNB-19
HCT-116 = system: HCT-116
NCI-H23 = system: NCI-H23
HCC 2998 = system: HCC 2998
M14 = system: M14
HOP-92 = system: HOP-92
UACC-257 = system: UACC-257
U-251 = system: U-251
ACHN = system: ACHN
K562 = system: K562
M19-MEL = system: M19-MEL
DMS-114 = system: DMS-114
SNB-75 = system: SNB-75
HOP-62 = system: HOP-62
SNB-78 = system: SNB-78
UACC-62 = system: UACC-62
COLO 205 = system: COLO 205
KM-20L2 = system: KM-20L2
IGROV-1 = system: IGROV-1
SF-539 = system: SF-539
OVCAR-3 = system: OVCAR-3
HL-60 = system: HL-60
SF-295 = system: SF-295
SK-MEL-2 = system: SK-MEL-2
NCI-H460 = system: NCI-H460
SK-MEL-28 = system: SK-MEL-28
A498 = system: A498
DMS-273 = system: DMS-273
NCI-H226 = system: NCI-H226
LOX IMVI = system: LOX IMVI
HCT-15 = system: HCT-15
CCRF-CEM = system: CCRF-CEM
786-0 = system: 786-0
SN12C = system: SN12C
OVCAR-8 = system: OVCAR-8
TK-10 = system: TK-10
Malme-3M = system: Malme-3M
SW-620 = system: SW-620
SK-MEL-5 = system: SK-MEL-5
EKVX = system: EKVX
RXF 393 = system: RXF 393
CAKI-1 = system: CAKI-1
A549 = system: A549
MDA-MB-435 = system: MDA-MB-435
Hs-578T = system: Hs-578T
NCI/ADR-RES = system: NCI/ADR-RES
DU-145 = system: DU-145
T47D = system: T47D
BT-549 = system: BT-549
PC-3 = system: PC-3
MCF7 = system: MCF7
MDA-N = system: MDA-N
MDA-MB-231 = system: MDA-MB-231

For Cc1cnc2cc(Cl)ccc2c1NCCN(CC(C)C)CC(C)C, the GI50 (LXFL 529) was 59.8 µM (inactive), the GI50 (UO-31) was 9.23 µM (inactive) and the GI50 (SR) was > 100 µM (inactive). For the same compound, the GI50 (HT-29) was 8.3 µM (inactive), the GI50 (OVCAR-5) was > 100 µM (inactive) and the GI50 (SF-268) was > 100 µM (inactive). The GI50 (SK-OV-3) was > 100 µM (inactive), the GI50 (RPMI-8226) was 13.6 µM (inactive) and the GI50 (NCI-H522) was 13.1 µM (inactive). For the same compound, the GI50 (KM12) was > 100 µM (inactive), the GI50 (MOLT-4) was > 100 µM (inactive) and the GI50 (OVCAR-4) was > 100 µM (inactive). For the same compound, the GI50 (SNB-19) was > 10 µM (inactive), the GI50 (HCT-116) was 78.7 µM (inactive) and the GI50 (NCI-H23) was 95.3 µM (inactive). For the same compound, the GI50 (HCC 2998) was > 100 µM (inactive), the GI50 (M14) was > 100 µM (inactive) and the GI50 (HOP-92) was 11.1 µM (inactive). The GI50 (UACC-257) was > 100 µM (inactive), the GI50 (U-251) was > 100 µM (inactive) and the GI50 (ACHN) was > 100 µM (inactive). For the same compound, the GI50 (K562) was 9.53 µM (inactive), the GI50 (M19-MEL) was > 100 µM (inactive) and the GI50 (DMS-114) was 8.18 µM (inactive). For the same compound, the GI50 (SNB-75) was > 100 µM (inactive), the GI50 (HOP-62) was 67.6 µM (inactive) and the GI50 (SNB-78) was 41.1 µM (inactive). The GI50 (UACC-62) was > 100 µM (inactive), the GI50 (COLO 205) was > 100 µM (inactive) and the GI50 (KM-20L2) was 17.5 µM (inactive). The GI50 (IGROV-1) was > 100 µM (inactive), the GI50 (SF-539) was > 100 µM (inactive) and the GI50 (OVCAR-3) was 13.3 µM (inactive). For the same compound, the GI50 (HL-60) was 9.75 µM (inactive), the GI50 (SF-295) was 32.7 µM (inactive) and the GI50 (SK-MEL-2) was > 100 µM (inactive). The GI50 (NCI-H460) was > 100 µM (inactive) and the GI50 (SK-MEL-28) was > 100 µM (inactive).
For O=C(OC1CCC2OOC1O2)c1ccc([N+](=O)[O-])cc1 (stereo not given), the GI50 (A498) was > 100 µM (inactive), the GI50 (UO-31) was > 100 µM (inactive) and the GI50 (SR) was > 100 µM (inactive). The GI50 (HT-29) was > 100 µM (inactive), the GI50 (OVCAR-5) was > 100 µM (inactive) and the GI50 (SF-268) was > 100 µM (inactive). For the same compound, the GI50 (SK-OV-3) was > 100 µM (inactive), the GI50 (RPMI-8226) was > 100 µM (inactive) and the GI50 (NCI-H522) was > 100 µM (inactive). The GI50 (KM12) was > 100 µM (inactive), the GI50 (MOLT-4) was > 100 µM (inactive) and the GI50 (DMS-273) was > 100 µM (inactive). The GI50 (OVCAR-4) was > 100 µM (inactive), the GI50 (NCI-H226) was > 100 µM (inactive) and the GI50 (SNB-19) was > 100 µM (inactive). The GI50 (HCT-116) was > 100 µM (inactive), the GI50 (LOX IMVI) was > 100 µM (inactive) and the GI50 (NCI-H23) was > 100 µM (inactive). The GI50 (HCT-15) was greater than 100 µM, the GI50 (CCRF-CEM) was > 100 µM (inactive) and the GI50 (786-0) was > 100 µM (inactive). The GI50 (HCC 2998) was > 100 µM (inactive), the GI50 (M14) was > 100 µM (inactive) and the GI50 (UACC-257) was > 100 µM (inactive). For the same compound, the GI50 (U-251) was > 100 µM (inactive), the GI50 (ACHN) was > 100 µM (inactive) and the GI50 (K562) was > 100 µM (inactive). For the same compound, the GI50 (M19-MEL) was > 100 µM (inactive), the GI50 (DMS-114) was > 100 µM (inactive) and the GI50 (SNB-75) was > 100 µM (inactive). The GI50 (HOP-62) was > 100 µM (inactive), the GI50 (SN12C) was > 100 µM (inactive) and the GI50 (OVCAR-8) was > 100 µM (inactive). For the same compound, the GI50 (TK-10) was > 100 µM (inactive), the GI50 (Malme-3M) was > 100 µM (inactive) and the GI50 (SW-620) was > 100 µM (inactive). For the same compound, the GI50 (SNB-78) was > 100 µM (inactive), the GI50 (SK-MEL-5) was > 100 µM (inactive) and the GI50 (UACC-62) was > 100 µM (inactive). For the same compound, the GI50 (COLO 205) was > 100 µM (inactive), the GI50 (EKVX) was > 100 µM (inactive) and the GI50 (KM-20L2) was > 100 µM (inactive). For the same compound, the GI50 (RXF 393) was > 100 µM (inactive), the GI50 (IGROV-1) was > 100 µM (inactive) and the GI50 (CAKI-1) was > 100 µM (inactive). For the same compound, the GI50 (SF-539) was > 100 µM (inactive), the GI50 (OVCAR-3) was > 100 µM (inactive) and the GI50 (HL-60) was > 100 µM (inactive). For the same compound, the GI50 (SF-295) was > 100 µM (inactive), the GI50 (A549) was > 100 µM (inactive) and the GI50 (SK-MEL-2) was > 100 µM (inactive). For the same compound, the GI50 (NCI-H460) was > 100 µM (inactive) and the GI50 (SK-MEL-28) was > 100 µM (inactive).
CCOP(=O)(OCC)C(c1ccccc1)N(C(=O)NC(F)(F)F)c1ccc(C)cc1 (stereo not given) was tested, and the GI50 (A498) was > 100 µM (inactive), the GI50 (UO-31) was > 100 µM (inactive) and the GI50 (SR) was > 100 µM (inactive). For the same compound, the GI50 (HT-29) was > 100 µM (inactive), the GI50 (OVCAR-5) was > 100 µM (inactive) and the GI50 (SF-268) was > 100 µM (inactive). The GI50 (SK-OV-3) was > 100 µM (inactive), the GI50 (RPMI-8226) was > 100 µM (inactive) and the GI50 (NCI-H522) was > 100 µM (inactive). The GI50 (KM12) was > 100 µM (inactive), the GI50 (MOLT-4) was > 100 µM (inactive) and the GI50 (OVCAR-4) was > 100 µM (inactive). For the same compound, the GI50 (NCI-H226) was > 100 µM (inactive), the GI50 (SNB-19) was > 100 µM (inactive) and the GI50 (MDA-MB-435) was > 100 µM (inactive). The GI50 (HCT-116) was > 100 µM (inactive), the GI50 (LOX IMVI) was > 100 µM (inactive) and the GI50 (NCI-H23) was > 100 µM (inactive). The GI50 (HCT-15) was greater than 100 µM, the GI50 (CCRF-CEM) was > 100 µM (inactive) and the GI50 (786-0) was > 100 µM (inactive). The GI50 (Hs-578T) was 69.5 µM (inactive), the GI50 (NCI/ADR-RES) was > 100 µM (inactive) and the GI50 (DU-145) was > 100 µM (inactive). The GI50 (HCC 2998) was > 100 µM (inactive), the GI50 (M14) was > 100 µM (inactive) and the GI50 (HOP-92) was 19.1 µM (inactive). The GI50 (UACC-257) was > 100 µM (inactive), the GI50 (U-251) was > 100 µM (inactive) and the GI50 (T47D) was 83.4 µM (inactive). For the same compound, the GI50 (ACHN) was > 100 µM (inactive), the GI50 (K562) was > 100 µM (inactive) and the GI50 (SNB-75) was > 100 µM (inactive). The GI50 (HOP-62) was > 100 µM (inactive), the GI50 (SN12C) was > 100 µM (inactive) and the GI50 (OVCAR-8) was > 100 µM (inactive). The GI50 (TK-10) was > 100 µM (inactive), the GI50 (Malme-3M) was > 100 µM (inactive) and the GI50 (SW-620) was > 100 µM (inactive). The GI50 (SK-MEL-5) was > 100 µM (inactive), the GI50 (UACC-62) was > 100 µM (inactive) and the GI50 (COLO 205) was > 100 µM (inactive). The GI50 (EKVX) was > 100 µM (inactive), the GI50 (RXF 393) was > 100 µM (inactive) and the GI50 (IGROV-1) was > 100 µM (inactive). For the same compound, the GI50 (CAKI-1) was > 100 µM (inactive), the GI50 (BT-549) was > 100 µM (inactive) and the GI50 (SF-539) was > 100 µM (inactive). For the same compound, the GI50 (PC-3) was > 100 µM (inactive), the GI50 (OVCAR-3) was > 100 µM (inactive) and the GI50 (MCF7) was > 100 µM (inactive). The GI50 (HL-60) was > 100 µM (inactive), the GI50 (SF-295) was > 100 µM (inactive) and the GI50 (A549) was > 100 µM (inactive). For the same compound, the GI50 (SK-MEL-2) was > 100 µM (inactive), the GI50 (NCI-H460) was > 100 µM (inactive) and the GI50 (SK-MEL-28) was > 100 µM (inactive). For the same compound, the GI50 (MDA-N) was > 100 µM (inactive) and the GI50 (MDA-MB-231) was > 100 µM (inactive).
